Read-outs that look alike come from different tables or passages of the source.
What was measured:
NMDAR2D [1] = molecular target: T1, NMDAR2D (Homo sapiens, UniProt O15399); test: [3H]MK-801 binding in NMDAR2D expressing HEK cell membranes; assay type: biochemical; design: key to B: log EC50: 0=−; ≥1×10^−9 M (e.g., −8)=+; <1×10^−9 M (e.g., −10)=++; details: for A: % maximal [3H]MK-801 binding relative to 1 mM glycine: second part of table (r25-r35), c3, taken as NMDAR2D
T1 construct: expressed in transfected cells; host or cells: HEK cells (membrane extract)
Description: (§1) Assays were conducted as described by Moskal et al., “GLYX-13: a monoclonal antibody-derived peptide that acts as an N-methyl-D-aspartate receptor modulator,” Neuropharmacology, 49, 1077-87, 2005. These studies were designed to determine if the test compounds act to facilitate NMDAR activation in NMDAR2A, NMDAR2B, NMDAR2C or NMDAR2D expressing HEK cell membranes as measured by increases in [^3H]MK-801 binding.
(§2) In the assay, 300 μg of NMDAR expressing HEK cell membrane extract protein was preincubated for 15 minutes at 25° C. in the presence of saturating concentrations of glutamate (50 μM) and varying concentrations of test compound (1×10^−15M−1×10^−7M), or 1 mM glycine. Following the addition of 0.3 μCi of [^3H]MK-801 (22.5 Ci/mmol), reactions were again incubated for 15 minutes at 25° C. (nonequilibrium conditions). Bound and free [^3H]MK-801 were separated via rapid filtration using a Brandel apparatus.
(§3) In analyzing the data, the DPM (disintegrations per minute) of [^3H]MK-801 remaining on the filter were measured for each concentration of test compound or for 1 mM glycine. The DPM values for each concentration of a ligand (N=2) were averaged. The baseline value was determined from the best fit curve of the DPM values modeled using the GraphPad program and the log(agonist) vs. response (three parameters) algorithm was then subtracted from all points in the dataset. The % maximal [^3H]MK-801 binding was then calculated relative to that of 1 mM glycine: all baseline subtracted DPM values were divided by the average value for 1 mM glycine. The EC50 and % maximal activity were then obtained from the best fit curve of the % maximal [^3H]MK-801 binding data modelled using the GraphPad program and the log(agonist) vs. response (three parameters) algorithm.
(§4) The tables below summarize the results for the wild type […] NMDAR2A, NMDAR2B, NMDAR2C, and NMDAR2D, and whether the compound is not an agonist (−), is an agonist (+), or is a strong agonist (++), where column A is based on the % maximal [^3H]MK-801 binding relative to 1 mM glycine (−=0; <100%=+; and >100%=++); and column B is based on log EC50 values (0=−; ≥1×10^−9 M (e.g., −8)=+; and <1×10^−9 M (e.g., −10)=++).

NMDAR2B = molecular target: T2, NMDAR2B (Homo sapiens, UniProt Q13224); test: [3H]MK-801 binding in NMDAR2B expressing HEK cell membranes; assay type: biochemical; details: 50 μM glutamate; for EC50: read-out: B: log EC50 (converted); for Emax: read-out: A: % maximal [3H]MK-801 binding relative to 1 mM glycine
T2 construct: expressed in transfected cells; host or cells: HEK cells (membrane extract)
Description: as §1, §2, §3, §4

NMDAR2A = molecular target: T3, NMDAR2A (Homo sapiens, UniProt Q12879); test: [3H]MK-801 binding in NMDAR2A expressing HEK cell membranes; assay type: biochemical; design: key to B: log EC50: 0=−; ≥1×10^−9 M (e.g., −8)=+; <1×10^−9 M (e.g., −10)=++; details: 50 μM glutamate; for EC50: read-out: B: log EC50 (converted)
T3 construct: expressed in transfected cells; host or cells: HEK cells (membrane extract)
Description: as §1, §2, §3, §4

IV pharmacokinetics = assay type: in vivo; details: Sprague Dawley rats; for C0: normal saline (first four compounds: 5% NMP, 5% Solutol HS, 90% normal saline); for Vd: read-out: Vss
Description: Sprague Dawley rats were dosed intravenously using a normal saline formulation containing 2 mg/kg of the compounds identified in the below table (except for the first four compounds that were delivered in 5% NMP, 5% Solutol® HS and 90% normal saline formulation). The table below summarizes the results of the IV pharmacokinetics.

[2] = oral pharmacokinetics (plasma, brain, CSF); assay type: in vivo; details: Sprague Dawley rats, per os 10 mg/kg; for Tmax: normal saline (first four compounds: 5% NMP, 5% Solutol HS, 90% normal saline)
Description: Plasma, brain, and CSF samples were analyzed at various time points over a 24 hour period.

NMDAR2C = molecular target: T4, NMDAR2C (Homo sapiens, UniProt Q14957); test: [3H]MK-801 binding in NMDAR2C expressing HEK cell membranes; assay type: biochemical; details: second part of table (r25-r35); c2, taken as NMDAR2C; read-out: B: log EC50 (converted)
T4 construct: expressed in transfected cells; host or cells: HEK cells (membrane extract)
Description: as §1, §2
as §3, with “algorithm. […]” for “algorithm.”

rats = test: positive emotional learning (PEL) test, 50-kHz ultrasonic vocalizations; assay type: in vivo; details: rat, PO, one hour after administration
Description: Experiments were conducted as described in Burgdorf et al., “The effect of selective breeding for differential rates of 50-kHz ultrasonic vocalizations on emotional behavior in rats,” Devel. Psychobiol., 51:34-46 (2009). Rat 50-kHz ultrasonic vocalization (hedonic USVs) is a validated model for the study of positive affective state and is best elicited by rough-and-tumble play.
The PEL assay measures the acquisition of positive (hedonic) 50-kHz ultrasonic vocalizations (USVs) to a social stimulus, heterospecific rough and tumble play stimulation. Heterospecific rough-and-tumble play stimulation was administered by the experimenter's right hand. One hour after administration of test compound or vehicle negative control (0.5% sodium carboxymethyl cellulose in 0.9% sterile saline vehicle), animals received 3 min of heterospecific rough-and-tumble play that consisted of alternating 15 sec blocks of heterospecific play and 15 sec of no-stimulation. High frequency ultrasonic vocalizations (USVs) were recorded and analyzed by sonogram with Avasoft SASlab Pro (Germany) as previously described by Burgdorf et al., “Positive emotional learning is regulated in the medial prefrontal cortex by GluN2B-containing NMDA receptors,” Neuroscience, 192:515-523 (2011). Frequency modulated 50-kHz USVs that occurred during each of the no-stimulation periods were quantified to measure PEL. Animals were not habituated to play stimulation before testing. Positive emotional learning was measured during the conditioned stimulus (CS) trials preceding the tickle unconditioned stimulus (UCS) trials. Animals received 15 second trials consisting of 6 CS and 6 UCS trials each (3 min total).
The table below summarizes the findings. As each experiment includes its own vehicle group, an example (typical) vehicle score is shown. Max effect (mean number of 50 kHz USVs per 15 seconds) is reported as ^: <6.0; *: 6.0-7.6; **: 7.7-10; ***:10.1-20

NMDAR2D [3] = molecular target: T5, NMDAR2D (Homo sapiens, UniProt O15399+Q05586); test: [3H]MK-801 binding in NMDAR2D expressing HEK cell membranes; assay type: biochemical; design: key to B: log EC50: 0=−; ≥1×10^−9 M (e.g., −8)=+; <1×10^−9 M (e.g., −10)=++; details: for EC50: second part of table (r25-r35), c4, taken as NMDAR2D, read-out: B: log EC50 (converted); for Emax: second part of table, c3, taken as NMDAR2D, read-out: A: % maximal [3H]MK-801 binding relative to 1 mM glycine
T5 construct: expressed in transfected cells; host or cells: HEK cells (membrane extract)
Description: as §1, §2, §3, §4

Sprague Dawley rats = test: Porsolt forced swim test; assay type: in vivo; details: 0.1 mg/kg; for % reduction in float time: relative to vehicle group
Description: A non-clinical in vivo pharmacology study (Porsolt assay) was performed to measure antidepressant-like effects. A negative control (0.5% sodium carboxymethyl cellulose in 0.9% sterile saline vehicle) and a positive control (fluoxetine) are shown for comparison against test compound. The study allowed for the evaluation of the effects of each compound on the Porsolt forced swim test as assessed by the rats' response (reduced floating time) during a 5-minute swimming test.
Male 2-3 month old Sprague Dawley rats were used (Harlan, Indianapolis, Ind.). Rats were housed in Lucite cages with aspen wood chip bedding, maintained on a 12:12 light:dark cycle (lights on at 5 AM), and given ad libitum access to Purina lab chow (USA) and tap water throughout the study.
The Porsolt forced swim test adapted for use in rats was performed as described by Burgdorf et al., (The long-lasting antidepressant effects of rapastinel (GLYX-13) are associated with a metaplasticity process in the medial prefrontal cortex and hippocampus. Neuroscience 308:202-211, 2015). Animals were placed in a 46 cm tall×20 cm in diameter clear glass tube filled to 30 cm with tap water (23±1° C.) for 15 min on the first day (habituation) and 5 min on the subsequent test day. Positive control fluoxetine was dosed 3 times (24 h, 5 h and 1 h) prior to testing. Animals were tested 1 h or 24 h post-dosing with the test compounds or vehicle. Animals received a 15 min habituation session 1 day before the 5 min test. A subset of compounds tested at 1 h post-dosing were retested at 1 wk post-dosing in the same sets of animals. Water was changed after every other animal. Animals were videotaped, and floating time as defined as the minimal amount of effort required to keep the animals head above water was scored offline by a blinded experimenter with high inter-rater reliability (Pearson's r>0.9).
Each compound tested at dose level shown. Significance vs. vehicle group for each experiment is marked. […] A compound marked “No” was not statistically significant from vehicle. Data was averaged for test compound and vehicle groups (N approximately 8 per group) and the percent reduction in floating for group treated with test compound relative to group treated with vehicle is shown.

[4] = Sprague Dawley, rat, in vivo, iv, 2 mg/kg
[5] = Sprague Dawley, rat, plasma, po, 10 mg/kg
[6] = Sprague Dawley, rat, plasma, po, 10 mg/kg, plasma, read-out: Cmax
[7] = rat, plasma, po, read-out: Tmax
[8] = Sprague Dawley, rat, in vivo, iv, 2 mg/kg, read-out: C0

T4 sequence (Q14957 20-1233, species assumed, other chains not shown): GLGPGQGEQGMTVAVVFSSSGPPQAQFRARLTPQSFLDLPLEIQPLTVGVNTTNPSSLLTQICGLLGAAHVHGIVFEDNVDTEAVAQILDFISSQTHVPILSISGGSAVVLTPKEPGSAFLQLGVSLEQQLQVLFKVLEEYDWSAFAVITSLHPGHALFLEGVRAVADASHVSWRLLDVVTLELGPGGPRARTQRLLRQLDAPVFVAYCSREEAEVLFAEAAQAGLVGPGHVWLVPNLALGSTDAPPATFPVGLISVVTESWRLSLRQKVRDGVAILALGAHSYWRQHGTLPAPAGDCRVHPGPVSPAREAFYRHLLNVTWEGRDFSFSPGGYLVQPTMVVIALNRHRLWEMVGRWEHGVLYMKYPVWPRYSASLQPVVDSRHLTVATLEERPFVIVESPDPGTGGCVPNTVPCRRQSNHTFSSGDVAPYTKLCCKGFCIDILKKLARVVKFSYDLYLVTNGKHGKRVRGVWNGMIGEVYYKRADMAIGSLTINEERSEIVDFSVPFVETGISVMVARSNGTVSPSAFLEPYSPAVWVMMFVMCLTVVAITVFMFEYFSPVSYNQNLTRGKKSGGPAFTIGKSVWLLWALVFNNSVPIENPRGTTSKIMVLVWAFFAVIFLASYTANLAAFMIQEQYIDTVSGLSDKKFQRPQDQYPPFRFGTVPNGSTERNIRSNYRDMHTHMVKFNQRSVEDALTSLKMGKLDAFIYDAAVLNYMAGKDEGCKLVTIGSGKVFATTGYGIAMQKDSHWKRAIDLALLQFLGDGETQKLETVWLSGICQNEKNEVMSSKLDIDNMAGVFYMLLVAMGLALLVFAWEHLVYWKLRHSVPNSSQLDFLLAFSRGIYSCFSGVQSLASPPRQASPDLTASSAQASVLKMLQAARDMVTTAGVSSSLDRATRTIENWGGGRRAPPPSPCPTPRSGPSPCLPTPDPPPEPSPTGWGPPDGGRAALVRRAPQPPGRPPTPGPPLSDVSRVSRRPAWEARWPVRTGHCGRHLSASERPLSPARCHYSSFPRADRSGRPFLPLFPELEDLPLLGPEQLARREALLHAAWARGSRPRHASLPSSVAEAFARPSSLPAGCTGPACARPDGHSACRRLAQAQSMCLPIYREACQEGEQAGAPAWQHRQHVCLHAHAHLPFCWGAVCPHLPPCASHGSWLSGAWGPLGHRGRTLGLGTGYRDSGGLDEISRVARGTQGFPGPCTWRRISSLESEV
T3 sequence (Q12879 23-1464, species assumed, other chains not shown): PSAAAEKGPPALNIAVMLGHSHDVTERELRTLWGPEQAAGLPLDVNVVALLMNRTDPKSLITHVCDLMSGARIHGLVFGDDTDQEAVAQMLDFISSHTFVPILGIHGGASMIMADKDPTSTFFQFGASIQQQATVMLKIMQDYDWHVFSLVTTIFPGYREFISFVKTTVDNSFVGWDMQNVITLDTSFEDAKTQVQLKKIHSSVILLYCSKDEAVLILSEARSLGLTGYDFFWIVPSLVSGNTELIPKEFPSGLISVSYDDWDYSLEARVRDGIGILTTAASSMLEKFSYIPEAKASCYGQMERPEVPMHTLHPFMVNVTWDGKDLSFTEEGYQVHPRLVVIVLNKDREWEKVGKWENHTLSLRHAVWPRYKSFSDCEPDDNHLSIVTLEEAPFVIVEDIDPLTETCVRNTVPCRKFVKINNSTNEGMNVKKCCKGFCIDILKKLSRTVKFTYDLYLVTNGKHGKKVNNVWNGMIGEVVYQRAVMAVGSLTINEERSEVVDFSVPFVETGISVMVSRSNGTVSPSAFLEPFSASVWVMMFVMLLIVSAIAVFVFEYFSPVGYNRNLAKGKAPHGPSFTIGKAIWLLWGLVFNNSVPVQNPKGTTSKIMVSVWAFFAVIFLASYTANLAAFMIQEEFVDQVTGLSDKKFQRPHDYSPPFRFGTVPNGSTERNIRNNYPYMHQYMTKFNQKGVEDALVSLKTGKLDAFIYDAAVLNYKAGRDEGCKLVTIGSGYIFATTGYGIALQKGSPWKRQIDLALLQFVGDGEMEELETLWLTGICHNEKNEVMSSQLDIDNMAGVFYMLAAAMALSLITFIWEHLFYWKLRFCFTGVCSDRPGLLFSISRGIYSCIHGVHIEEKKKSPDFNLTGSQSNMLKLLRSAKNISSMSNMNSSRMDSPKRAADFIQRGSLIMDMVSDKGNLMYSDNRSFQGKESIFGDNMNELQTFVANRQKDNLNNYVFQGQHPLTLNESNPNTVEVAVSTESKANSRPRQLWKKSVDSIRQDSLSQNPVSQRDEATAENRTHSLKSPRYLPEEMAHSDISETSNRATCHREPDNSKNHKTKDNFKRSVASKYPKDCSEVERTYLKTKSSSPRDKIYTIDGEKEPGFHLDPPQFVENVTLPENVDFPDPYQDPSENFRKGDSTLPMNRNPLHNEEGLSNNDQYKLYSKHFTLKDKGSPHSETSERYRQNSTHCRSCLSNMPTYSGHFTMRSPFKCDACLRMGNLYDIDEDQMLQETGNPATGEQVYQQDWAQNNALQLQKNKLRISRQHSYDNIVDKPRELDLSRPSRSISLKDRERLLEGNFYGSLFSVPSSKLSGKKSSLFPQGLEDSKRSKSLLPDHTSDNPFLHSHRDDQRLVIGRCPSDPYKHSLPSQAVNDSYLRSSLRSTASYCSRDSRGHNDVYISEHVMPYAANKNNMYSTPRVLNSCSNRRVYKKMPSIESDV
T5 sequence (O15399 28-1336, species assumed, other chains not shown): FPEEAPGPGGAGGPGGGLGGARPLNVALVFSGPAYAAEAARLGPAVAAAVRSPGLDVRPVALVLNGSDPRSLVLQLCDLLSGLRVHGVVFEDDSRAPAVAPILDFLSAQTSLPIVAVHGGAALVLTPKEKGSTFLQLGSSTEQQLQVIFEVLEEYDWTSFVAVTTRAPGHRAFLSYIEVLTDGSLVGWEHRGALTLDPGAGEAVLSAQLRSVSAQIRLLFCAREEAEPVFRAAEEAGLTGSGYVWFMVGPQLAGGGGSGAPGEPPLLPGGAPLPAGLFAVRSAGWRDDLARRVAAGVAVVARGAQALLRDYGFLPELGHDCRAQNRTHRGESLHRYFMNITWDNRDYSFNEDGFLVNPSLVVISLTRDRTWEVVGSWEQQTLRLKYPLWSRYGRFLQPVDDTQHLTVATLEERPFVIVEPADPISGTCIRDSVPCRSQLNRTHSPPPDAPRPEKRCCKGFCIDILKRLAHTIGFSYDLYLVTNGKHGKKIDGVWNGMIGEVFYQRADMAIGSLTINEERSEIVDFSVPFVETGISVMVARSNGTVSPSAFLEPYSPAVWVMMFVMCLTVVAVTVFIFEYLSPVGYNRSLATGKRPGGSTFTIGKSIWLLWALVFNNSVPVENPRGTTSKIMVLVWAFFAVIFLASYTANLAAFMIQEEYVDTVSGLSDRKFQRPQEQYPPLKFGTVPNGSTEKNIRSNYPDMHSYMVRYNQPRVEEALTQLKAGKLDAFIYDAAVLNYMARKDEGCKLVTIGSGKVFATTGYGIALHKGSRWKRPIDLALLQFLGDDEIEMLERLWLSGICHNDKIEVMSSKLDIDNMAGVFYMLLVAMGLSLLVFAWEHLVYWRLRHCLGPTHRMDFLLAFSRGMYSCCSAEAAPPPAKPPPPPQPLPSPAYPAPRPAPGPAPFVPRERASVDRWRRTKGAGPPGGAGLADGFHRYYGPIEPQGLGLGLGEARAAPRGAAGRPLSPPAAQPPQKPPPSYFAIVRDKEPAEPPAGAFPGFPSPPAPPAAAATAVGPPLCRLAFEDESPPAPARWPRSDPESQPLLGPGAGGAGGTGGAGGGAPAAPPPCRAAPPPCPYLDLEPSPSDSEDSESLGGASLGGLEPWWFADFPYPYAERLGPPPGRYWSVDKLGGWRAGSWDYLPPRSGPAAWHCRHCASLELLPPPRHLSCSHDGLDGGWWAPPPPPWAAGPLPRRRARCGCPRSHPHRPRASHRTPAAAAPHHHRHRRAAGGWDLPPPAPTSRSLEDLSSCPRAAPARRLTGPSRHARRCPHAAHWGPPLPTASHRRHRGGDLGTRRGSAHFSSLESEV
T1 sequence (O15399 28-1336, species assumed, other chains not shown): as above

A: % maximal [3H]MK-801 binding relative to 1 mM glycine (NMDAR2D [1]) | A: % maximal [3H]MK-801 binding relative to 1 mM glycine (NMDAR2B) | EC50 (NMDAR2B) | A: % maximal [3H]MK-801 binding relative to 1 mM glycine (NMDAR2A) | EC50 (NMDAR2A) | Vss (IV pharmacokinetics; intravenous 2 mg/kg) | C0 (IV pharmacokinetics; intravenous 2 mg/kg) | CSF Cmax [2] | Brain Cmax [2] | EC50 (NMDAR2C) | EC50 (NMDAR2D [3]) | Emax (NMDAR2B) | AUC(0-t) (IV pharmacokinetics; [4]) | half-life (IV pharmacokinetics; [4]) | AUC(0-t) [2, 5] | bioavailability [2, 5] | Cmax [2, 6] | Tmax [2, 7] | Emax (NMDAR2D [3]) | SMILES | Max Effect (mean number of 50 kHz USVs per 15 seconds) (rats; dose .001-1 mg/kg) | other results
− (−=0) | + (<100%=+) | < 1 nM | + (<100%=+) | ≥ 1 nM | 1.69 L/kg | 1247.08 ng/mL | 102.5 ng/mL | 203.6 ng/mL | < 1 nM |  |  |  |  |  |  |  |  |  | CC(C)(C)OC(=O)N1CCCC2(CCNC2=O)C1 (single isomer, unassigned) [RA-1, tert-butyl 1-oxo-2,7-diazaspiro[4.5]decane-7-carboxylate] |  | B: log EC50 (NMDAR2D [1]; second part of table, c4, taken as NMDAR2D): −; AUClast (IV pharmacokinetics; intravenous 2 mg/kg): 234.08 ng·h/mL; T1/2 (IV pharmacokinetics; intravenous 2 mg/kg): 11.4 min; % F [2]: 28%; AUClast [2]: 324.2 ng·h/mL; Tmax [2]: 15 min; Cmax ([2]; plasma): 592 ng/mL; Max Effect (mean number of 50 kHz USVs per 15 seconds) (rats; dose 0.1 mg/kg): *** (***:10.1-20)
+ (<100%=+) |  | < 1 nM | − (−=0) |  | 4.12 L/kg | 589.9 ng/mL | 86.1 ng/mL | 22 ng/mL |  | < 1 nM | < 100% | 136 ng·h/mL | 16.2 min | 273 ng·h/mL | 40% | 495 ng/mL | 15 min |  | CC(C)(C)OC(=O)N1CCCC2(CCNC2=O)C1 (single isomer, unassigned) [RE-1, tert-butyl 1-oxo-2,7-diazaspiro[4.5]decane-7-carboxylate] | *** (***:10.1-20) | B: log EC50 (NMDAR2A): −
 |  | ≥ 1 nM | + (<100%=+) | < 1 nM |  |  | 3157 ng/mL | 2209 ng/mL | < 1 nM | < 1 nM | > 100% | 7010 ng·h/mL | 243 min | 29500 ng·h/mL | 84% | 10800 ng/mL | 30 min | < 100% | CC(C)C(=O)N1CCCC12CCNC2=O (stereo not shown) [RZ-405] |  | clearance (IV pharmacokinetics; [4]): 4.74 mL/min/kg; C0 (IV pharmacokinetics; [8]): 3040 ng/mL; Vd (IV pharmacokinetics; [4]): 0.69 L/kg; Significance vs. vehicle (Sprague Dawley rats; 1 h post-dose, floating time in 5 min test): Yes (statistically significant (p<=0.05) from vehicle at dose level shown); % reduction in float time (Sprague Dawley rats; 1 h post-dose): 78.9%; Significance vs. vehicle (Sprague Dawley rats; 24 h post-dose): Yes (statistically significant (p<=0.05) from vehicle at dose level shown); % reduction in float time (Sprague Dawley rats; 24 h post-dose): 42.7%
 | ++ (>100%=++) | < 1 nM | + (<100%=+) | < 1 nM |  |  | 1415 ng/mL | 2763 ng/mL | < 1 nM | < 1 nM |  | 1330 ng·h/mL | 29.4 min | 5010 ng·h/mL | 75% | 4310 ng/mL | 15 min | < 100% | CC(C)(C)OC(=O)N1CCCC12CCNC2=O (single isomer, unassigned) [RM-1, tert-butyl 6-oxo-1,7-diazaspiro[4.4]nonane-1-carboxylate] | *** (***:10.1-20) | clearance (IV pharmacokinetics; [4]): 24.9 mL/min/kg; C0 (IV pharmacokinetics; [8]): 2010 ng/mL; Vd (IV pharmacokinetics; [4]): 0.91 L/kg
